Laboratory results published in patent US20170087205A1, “Replacement Therapy for Natriuretic Peptide Deficiencies” (priority 2014, published 2017).
Positions of bridges follow the written chain, without caps; N, C: chain ends. Non-standard residues stand in square brackets, D forms with d. Residues, ends and D or L forms follow the SMILES beside them. *: point of attachment. X1 = N=C(N)NCCC[C@H]1C(=O)N[C@@H](C(N)=O)CN1*; dNle = CCCC[C@@H](N)C(=O)O; Heptanoyl = CCCCCCC(=O)*

Assays:
[1] = in vivo; cited from earlier work
[2] = target: human NEP (hNEP) (Homo sapiens, UniProt P08473); test: Metabolism by human neutral endopeptidase (hNEP); format: in vitro ADME; details: two hours, 37° C., substrate concentration 50 μM
Experimental: Pharmacol. 191:341-366 (2009)). A comparison was made between the sensitivity of the mimetic of formula IV and ANP to metabolism by human NEP (hNEP) (substrate concentration 50 μM). After two hours exposure to hNEP solution at 37° C., there was minimal degradation of the mimetic of formula IV (92% remaining; n=5). In contrast, under these conditions ANP was about 90% degraded after 60 minutes and 100% degraded after two hours (n=4). […] Results are shown in FIG. 1; results in FIG. 1 are expressed as the percent of the starting material, and are either the mean of 1-5 experiments or, where error bars are shown, are the mean±standard deviation.

[3] = target: T1, human NPRA (Homo sapiens, UniProt P16066); format: cell-based; details: human NPRA in HEK cells; mean ± SD
T1 sequence (P16066 33-1061): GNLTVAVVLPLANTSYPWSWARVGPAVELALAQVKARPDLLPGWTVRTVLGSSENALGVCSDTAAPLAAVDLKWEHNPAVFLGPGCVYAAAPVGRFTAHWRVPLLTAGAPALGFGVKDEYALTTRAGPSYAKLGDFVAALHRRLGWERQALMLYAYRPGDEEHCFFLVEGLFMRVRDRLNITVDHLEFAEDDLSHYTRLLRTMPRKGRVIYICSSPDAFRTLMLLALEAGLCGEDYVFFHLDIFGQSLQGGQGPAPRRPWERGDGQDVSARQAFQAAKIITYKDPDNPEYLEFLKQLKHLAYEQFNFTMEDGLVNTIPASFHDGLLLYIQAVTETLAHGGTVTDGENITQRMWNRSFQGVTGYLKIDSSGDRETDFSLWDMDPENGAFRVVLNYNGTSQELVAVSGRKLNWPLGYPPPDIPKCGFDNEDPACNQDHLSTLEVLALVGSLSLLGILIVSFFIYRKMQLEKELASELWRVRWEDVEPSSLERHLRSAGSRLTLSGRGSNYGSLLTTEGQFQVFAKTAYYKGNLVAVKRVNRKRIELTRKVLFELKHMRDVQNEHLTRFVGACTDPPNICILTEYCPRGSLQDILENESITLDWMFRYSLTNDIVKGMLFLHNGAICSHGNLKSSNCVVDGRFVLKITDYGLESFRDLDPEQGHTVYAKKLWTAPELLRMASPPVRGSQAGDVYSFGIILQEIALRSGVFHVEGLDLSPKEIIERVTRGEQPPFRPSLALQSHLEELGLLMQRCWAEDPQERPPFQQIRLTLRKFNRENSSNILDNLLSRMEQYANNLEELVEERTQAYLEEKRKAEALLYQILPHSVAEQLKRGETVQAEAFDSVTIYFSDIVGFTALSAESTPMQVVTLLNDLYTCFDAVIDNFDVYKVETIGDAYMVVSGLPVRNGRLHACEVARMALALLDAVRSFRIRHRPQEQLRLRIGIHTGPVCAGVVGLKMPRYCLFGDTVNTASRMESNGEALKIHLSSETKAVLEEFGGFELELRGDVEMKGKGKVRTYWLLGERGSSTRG
Experimental: A cDNA clone that encodes for human natriuratic peptide receptor A (NPRA) was purchased from Bio S&T Inc. (Montreal, Quebec). The cDNA clone was inserted into the mammalian expression vector pcDNA3.1 (Invitrogen) and transfected into HEK-293 cells. Stable clones were selected by culture of cells in the presence of G418 sulfate. […] HEK-hNPRA cells were maintained in culture at 37° C. in 5% CO2 in Dulbecco's Modified Eagle's Medium (DMEM) supplemented with 10% FBS, G418 sulfate (300 μg/mL) sodium glutamate (0.29 mg/mL), penicillin (100 units/mL) and streptromycin (100 ug/mL).
Functional evaluation of natriuretic peptide mimetics was performed by measuring the accumulation of intracellular cGMP in HEK-293 cells that express recombinant hNPR-A. HEK-NPRA cells were harvested by washing and centrifugation in Cell Dissociation Buffer (Gibco, Life Technologies). Pelleted cells were resuspended in Hank's Balanced Salt Solution (HBSS) containing 10 mM Hepes (pH 7.4), 5 mM MgCl2, 200 mM L-glutamine, 1 mM 1,10-phenanthroline and BSA (0.5 mg/mL). Following centrifugation, cells were resuspended in the above buffer supplemented with 0.5 mM 3-isobutyl-1-methylxanthine (IBMX). […] Accumulation of cGMP was measured using the cGMP Flashplate RIA (Perkin-Elmer). Data analysis and EC50 values were determined by using nonlinear regression analysis with GraphPad Prism® software.

[4] = Safety study in healthy volunteers: pharmacodynamic parameters (plasma cGMP); format: in vivo, human; details: mean ± SD
Text: Cyclic guanosine monophosphate (cGMP) in the plasma samples was extracted using a protein precipitation method. cGMP and internal standard, cyclic adenosine monophosphate (cAMP), were separated using a HPLC technique and detected by an Applied Biosystems API-4000 liquid chromatography-tandem mass spectrometer (LC-MS/MS) with turbo-ion spray ionization (electrospray) in positive ion mode. Positive ions were detected in multiple reaction monitoring (MRM) mode with Precursor→Product ion pairs of 346.3→152.1 for cGMP, and 330.0→136.3 for cAMP.
In a safety study, the mimetic of formula IV was administered to healthy volunteers. Doses of 0.1, 0.3, 0.7 and 1.0 μg/kg of the mimetic of formula IV were administered.
Kel is the apparent terminal elimination rate constant, calculated by linear regression of the terminal linear portion of the log concentration versus the time curve. The plasma cGMP concentrations returned to baseline levels by approximately 8 hours after dosing following 0.7 μg/kg and 1.0 μg/kg of the mimetic of formula IV.

human NEP (hNEP), sequence (P08473 whole entry): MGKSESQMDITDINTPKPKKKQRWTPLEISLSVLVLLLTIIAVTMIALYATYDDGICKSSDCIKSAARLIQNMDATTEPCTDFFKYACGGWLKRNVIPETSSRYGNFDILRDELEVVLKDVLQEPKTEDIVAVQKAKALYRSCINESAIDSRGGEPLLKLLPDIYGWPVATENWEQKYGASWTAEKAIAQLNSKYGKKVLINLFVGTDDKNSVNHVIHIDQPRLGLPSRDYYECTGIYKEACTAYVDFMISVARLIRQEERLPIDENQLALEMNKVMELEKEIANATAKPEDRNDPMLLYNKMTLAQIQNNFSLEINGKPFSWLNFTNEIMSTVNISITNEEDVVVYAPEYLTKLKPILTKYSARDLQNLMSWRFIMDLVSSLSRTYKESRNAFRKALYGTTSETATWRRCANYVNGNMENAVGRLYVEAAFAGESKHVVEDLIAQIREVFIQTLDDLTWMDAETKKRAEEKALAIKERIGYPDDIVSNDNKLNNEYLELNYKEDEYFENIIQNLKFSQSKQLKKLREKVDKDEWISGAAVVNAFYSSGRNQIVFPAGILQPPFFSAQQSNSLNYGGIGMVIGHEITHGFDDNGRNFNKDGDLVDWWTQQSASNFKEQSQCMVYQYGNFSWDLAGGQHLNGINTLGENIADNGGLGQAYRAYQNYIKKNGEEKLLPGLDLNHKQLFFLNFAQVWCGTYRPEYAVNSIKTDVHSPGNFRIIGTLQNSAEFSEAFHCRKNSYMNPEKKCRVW

| Compound | reported human plasma half-life [1] | percent remaining after exposure to hNEP [2] | Function (cGMP) Emax (% of ANP response) [3] | t½ ([4]; 0.7 μg/kg) | t½ ([4]; 1.0 μg/kg) |
| --- | --- | --- | --- | --- | --- |
| CC[C@H](C)[C@@H]1NC(=O)[C@H](CCCNC(=N)N)NC(=O)[C@H](CC(=O)O)NC(=O)[C@H](CC(C)C)NC(=O)[C@H](CCCCN)NC(=O)[C@H](CC(C)C)NC(=O)CNC(=O)[C@H](Cc2ccccc2)NC(=O)[C@@H](NC(=O)CNC(=O)[C@H](CCCCN)NC(=O)[C@H](CO)NC(=O)[C@H](CC(C)C)NC(=O)CN)CSSC[C@@H](C(=O)O)NC(=O)CNC(=O)[C@H](CC(C)C)NC(=O)CNC(=O)[C@H](CO)NC(=O)[C@H](CCSC)NC(=O)[C@H](CO)NC(=O)CNC1=O [hCNP] | about 2 minutes | 1% | – | – | – |
| CCCCCCC(=O)N[C@H]1CSSC[C@@H](C(=O)N[C@@H](Cc2ccc(O)cc2)C(=O)N2C[C@H](C(N)=O)NC(=O)[C@@H]2CCCNC(=N)N)NC(=O)[C@H](CO)NC(=O)[C@H]([C@@H](C)CC)NC(=O)[C@H](CCCNC(=N)N)NC(=O)[C@H](CC(=O)O)NC(=O)[C@@H](CCCC)NC(=O)[C@H](CCCNC(=N)N)NC(=O)CNC(=O)[C@@H](C)NC(=O)[C@H](Cc2ccccc2)NC(=O)[C@H](Cc2c[nH]cn2)NC1=O [mimetic of formula IV] (Heptanoyl-CHF[dA]GR[dNle]DRISCY-X1; disulfide 1-12) | – | – | 94 ± 8 % of ANP response | 3.03 ± 0.345 h | 2.98 ± 3.61 h |
